Test results as given in patent US20250199004A1, “METHODS OF EVALUATING TREATMENT OUTCOME IN HIGH GRADE SEROUS OVARIAN CANCER” (THE REGENTS OF THE UNIVERSITY OF COLORADO, A BODY CORPORATE, priority 2018, published 2025).

Tests used:
Type in all cases: cell-based, human
[1] = tested on: aldehyde dehydrogenase (ALDH); assay: Aldefluor assay with flow cytometry; conditions: OVCAR4 cells, adherent and suspended, 7 days; negative control
Excerpt: The panels of FIG. 9A and FIG. 9B are as follows. Panel A: CBX2-associated genes were cross-referenced with a gene set for stemness. Percentage indicates overlap of stemness gene set with CBX2-associated genes. Panel B: OVCAR4 cells grown in adherent and suspended settings for 7 days. Aldefluor assay and flow cytometry were utilized to determine the percentage of cells that were positive for aldehyde dehydrogenase (ALDH), a marker of stemness. […] Panel C: As above, OVCAR4 cells grown in adherent and suspended settings for 7 days. Bar graph compares the percentage of cells ALDH positive control (+DEAB) to cells without DEAB (experimental) in adherent and suspended settings. Statistical test=two-sided t-test. F Test p=0.1136. Panel D: OVCAR4 cells with shControl, shCBX2 #1 and #2 cultured in suspension over 7 days. Aldefluor assay and flow cytometry again utilized to determine the percentage of cells ALDH positive. Statistical test=two-sided t-test. F-test p=0.83 Panel E: Utilizing the TCGA (HGSOC, Nature, 2011, n=489) dataset, a scatter plot CBX2 expression was correlated to ALDH3A1 expression. Spearman correlation r=0.2123 and p-value<0.0001. Panel F: RT-qPCR of ALDH3A1 in OVCAR4 cells cultured in adherent and suspension conditions with CBX2 knockdown (shCBX2 #1). Statistical test =ANOVA. […]

[2] = tested on: TMEFF1 expression in OVCAR4 cells; assay: TMEFF1 (CBX2 target gene) expression by qPCR; conditions: qPCR after treatment of OVCAR4 cells
Protocol: Ten candidate inhibitors were evaluated based on their ability to inhibit HGSOC cell viability. Dose response assays of all 10 inhibitors were conducted in OVCAR4, PEO1, and COV504 HGSOC cell lines to determine half inhibitory concentration (IC50) (FIG. 12 Panel A). We explored ability of these compounds to downregulate a CBX2 target gene, transmembrane protein with EGF-like and two follistatine-like domains 1 (TMEFF1) (FIG. 12 Panel B).
RNA was isolated using RNAeasy Plus Mini Kit (Qiagen, Hilden Germany) according to the manufacturer's protocol. NanoDrop spectrophotometry was used to measure concentration of extracted RNA. Luna Universal One-step RT qPCR kit (New England BioLabs, Ipswich, MA) was used on BioRad CFX96 (Bio-Rad, Hercules, CA). HPRT or GAPDH were used as internal control as stated in figure legend.

CBX2 = CBX2 knockdown confirmed via qPCR and immunoblots; conditions: shRNA transduced into OVCAR4, PEO1 and OVCAR8 cells; vs shControl
Excerpt: To further elucidate the role of CBX2 in HGSOC, we evaluated the impact of CBX2 modulation in PEO1, OVCAR4, and OVCAR8 HGSOC cell lines. One of the two independent small hairpin RNAs (shRNA) specific for CBX2 or a control (shControl) were transduced into OVCAR4, PEO1, and OVCAR8 cells. CBX2 knockdown was confirmed via quantitative PCR (qPCR) and immunoblots, with approximately 60% knockdown in the presence of shCBX2 #1 and 30% knockdown in the presence of shCBX2 #2 (FIG. 2A Panels C, D; and FIG. 3A Panels B-D). […] OVCAR4 and PEO1 CBX2 knockdown cells were plated in adherent (2D) conditions and for 96 h gLuc activity was measured every 24 h. […] OVCAR4 and PEO1 CBX2 knockdown cells were plated in forced suspension conditions and gLuc activity was monitored every 24 h for 96 h and cell viability was determined for cells grown in forced suspension. […] Spheroid diameter was measured for at least 50 spheroids in each condition and used as a surrogate for cell number. […]
Cell lysis was performed using radioimmunoprecipitation assay (RIPA) buffer (150 mM sodium chloride, Triton X-100, 0.5% sodium deoxycholate, 0.1% SDS [sodium dodecyl sulfate], 50 mM Tris, pH 8.0) supplemented with complete EDTA-free protease inhibitor cocktail (Roche), as well as NaF and NaV. Protein was quantified using bicinchoninic acid (BCA) protein assay (Thermo Fisher Scientific, Waltham, MA) and spectrophotometry. […]

For `CCN(CC)c1ccc(C=O)cc1` [DEAB, Diethylaminobenzaldehyde], the ALDH activity [1] was “prevented the increase”.

With `CC(=O)Nc1ccc(OC[C@](C)(O)C(=O)Nc2ccc([N+](=O)[O-])c(C(F)(F)F)c2)cc1` [GTX-007] the TMEFF1 expression [2] was “significantly inhibited”.

With `CCc1c(C(=O)C(N)=O)c2c(OCC(=O)O)cccc2n1Cc1ccccc1` [LY315920] the TMEFF1 expression [2] was “significantly inhibited”.

For `Cc1nc2ccc(CN(C)c3ccc(C(=O)N[C@@H](CCC(=O)O)C(=O)O)s3)cc2c(=O)[nH]1` [raltitrexed], the TMEFF1 expression [2] was “significantly inhibited”.

In the case of “shCBX2 #1: CBX2-specific short hairpin RNA, GCCAAGGAAGCTCACTGCCAT (SEQ ID NO:19) (expressed or natural sequence; listed as Homo sapiens)”, the CBX2 knockdown (CBX2) is reported as “approximately 60%”.

Work on “shCBX2 #2: CBX2-specific short hairpin RNA, ACGGAAAGGAACAGGAAGCAT (SEQ ID NO:20) (expressed or natural sequence; listed as Homo sapiens)” yielded a CBX2 knockdown (CBX2) of ~30%.
